In patent US20080105961A1, “Ligands of the Molecule Fit (Agt-121) and their Pharmaceutical Use” (priority 2004, published 2008):
Marks after values point to notes of the source that are not given here.

Tests used:
[1] = target: T1, MC4R (Rattus norvegicus, UniProt P70596); test: Feeding response to MT II after ODN or saline infusion; format: in vivo, Sprague Dawley rats; settings: mean ± SEM
T1 construct: from tissue; host or cells: living Sprague Dawley rats (brain)
Procedure: To further investigate this relationship, antisense suppression of FIT in Sprague Dawley rats was again performed and these animals' responses to administration of the α-MSH analog MT II, a synthetic agonist of the MC4R and known suppressor of feeding. MT II effects on food intake and body weight in saline and jumbled ODN-treated control rats, as well as in FIT antisense-treated rats was measured.

[2] = test system: FIT mRNA; test: Hypothalamic FIT gene expression by semi-quantitative RT-PCR in ICV antisense-treated rats; format: in vivo, Sprague Dawley rats; settings: hypothalamus, ICV-treated Sprague Dawley rats, mean ± SEM
Procedure: To confirm endogenous suppression of FIT in antisense-treated Sprague Dawley rats, FIT mRNA in the hypothalamus of these animals was measured.

[3] = test system: FIT mRNA; test: Pair-feeding study with indirect calorimetry (24 h): body weight, food intake, total energy expenditure; format: in vivo, Sprague Dawley rats; settings: mean ± SEM; for Day 0 BW: baseline
Procedure: To investigate the mechanism of weight loss after FIT antisense treatment, a group of Sprague Dawley rats were pair fed to the average daily food intake levels of FIT antisense-treated rats, and indirect calorimetry (24 h) was performed before and after FIT antisense or jumbled ODN ICV infusion.
Total energy expenditure (TEE) was calculated from measurements of oxygen consumption and carbon dioxide production using indirect calorimetry (Ferrannini, 1988). Due to differences in body weight between the three groups of rats, TEE levels were calculated relative to whole body mass of the animals. […] FIT antisense-treated rats therefore have an inappropriately high level of energy expenditure for their body weight.

[4] = test system: FIT mRNA; test: ICV infusion of FIT antisense ODN in Psammomys obesus: food intake and body weight; format: in vivo
Procedure: To further investigate the orexigenic properties of FIT intracerebroventricular (ICV) antisense suppression of FIT was performed. This involved the infusion of FIT antisense oligonucleotides (ODNs) directly into the lateral ventricle space of the brain to suppress endogenous FIT mRNA levels. The effects of this treatment on food intake and body weight were measured and compared to control animals infused with a jumbled sequence ODN, or saline alone. 18 week old, male, lean, normal glucose tolerant (nGT) P. obesus animals were utilised for this study and infused with either saline, FIT antisense ODN, or jumbled ODN at 24 μg/day for four days. The sequence of the FIT antisense ODN was 5′-mu*mg*mg*mc*ma*g*a*a*t*t*g*c*a*mu*mu*mc*mc*mu*-3′, and the jumbled ODN 5′-mc*mg*mc*ma*mc*t*t*a*g*c*t*a*c*mu*mu*mg*mc*mu-3′, where m indicates the presence of a 2′O-Methyl-modified base, and * indicates a phosphorothioate linkage.

[5] = test system: FIT mRNA; test: ICV infusion of FIT antisense ODN in Sprague Dawley rats: food intake and body weight; format: in vivo
Procedure: To confirm the appetite-suppressing and weight-reducing effects of central FIT suppression in an animal model other than P. obesus, the inventors performed the same experiments in Sprague Dawley rats. Male, 12 week old Sprague Dawley rats were infused with either saline, FIT antisense ODN, or jumbled ODN at 24 μg/day for four days. The sequence of the FIT antisense ODN and the jumbled ODN are the same as in Example 2 above.

[6] = test system: melanocortin receptor; test: Feeding response to ICV injection of SHU9119 after three days of ODN or saline infusion; format: in vivo, Sprague Dawley rats; settings: mean ± SEM
Description: To further analyse the link between FIT and the melanocortin system, the feeding response of Sprague Dawley rats to an ICV injection of SHU9119, a melanocortin receptor antagonist and known feeding stimulator was investigated. After three days of FIT antisense treatment, jumbled oligonucleotide or saline infusion, responses were compared to rats receiving an ICV injection of saline vehicle rather than SHU9119.

[7] = test system: FIT mRNA; test: Metabolic heat production by indirect calorimetry (FIG. 1); format: in vivo, Sprague Dawley rats; settings: pair fed, last half of dark phase and majority of light phase
Description: FIG. 1 is a graphical representation of metabolic heat production in Sprague Dawley rats after three days of FIT antisense-treatment compared to jumbled ad libitum fed and jumbled pair fed rats. *p<0.05 pair fed compared to jumbled group, #p<0.05 pair fed compared to FIT antisense-treated group, ̂p<0.05 compared to both jumbled and FIT antisense-treated groups. Data are mean ±SEM.
To further dissect the nature of the inability to reduce TEE levels after FIT antisense treatment, metabolic heat production was measured by indirect calorimetry.

[8] = target: T2, FIT-NP (FIT N-terminal plus proline-rich region) (Homo sapiens, UniProt Q9BQI5); test: Yeast two-hybrid screen of human brain cDNA library, bait FIT-NP; format: binding; settings: bait FIT-NP, human brain cDNA library; clones listed highest to lowest interacting strength
T2 construct: expressed in transfected cells
T2 sequence (Q9BQI5 with tags, fused parts or gaps I33M/P40L/N43H/V56A/I186T/P191L/T195L/E211G/Q212H/I230V/T240A/N255T/I269V/G270A/P271T/S276A/V280A/L285P/N289S/A308T/K311T/T318A/S335T/T339A/P340S/N342I/A348T/L352P/P357S/T358A/DEL367-367/L371P/I397L/D402E/F403C/A409E/P432S/P434T/T437A/R454S/S455C/T456S): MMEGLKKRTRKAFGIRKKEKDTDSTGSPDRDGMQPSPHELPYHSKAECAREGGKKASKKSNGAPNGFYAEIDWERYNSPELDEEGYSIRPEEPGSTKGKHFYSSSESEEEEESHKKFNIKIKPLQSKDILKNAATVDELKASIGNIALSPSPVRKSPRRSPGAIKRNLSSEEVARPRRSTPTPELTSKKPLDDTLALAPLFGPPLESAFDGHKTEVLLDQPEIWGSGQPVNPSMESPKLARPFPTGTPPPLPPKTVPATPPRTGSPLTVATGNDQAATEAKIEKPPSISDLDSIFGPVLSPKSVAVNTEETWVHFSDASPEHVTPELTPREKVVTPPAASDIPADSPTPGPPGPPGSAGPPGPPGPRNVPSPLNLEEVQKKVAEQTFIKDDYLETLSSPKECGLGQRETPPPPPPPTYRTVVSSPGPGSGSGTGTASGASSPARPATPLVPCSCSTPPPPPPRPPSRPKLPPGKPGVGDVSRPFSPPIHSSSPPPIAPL
Description: (§1) In order to perform these experiments, two truncated fragments of FIT were constructed to be used as baits in a yeast two-hybrid screen of a human brain cDNA library: one bait consisting of the N-terminal region plus the central proline-rich region, and the other bait consisting of the central proline-rich region alone. The inventors utilised a yeast two-hybrid system which incorporates modifications by Chevray and Nathans (1992), and Vidal et al. (1996) to screen a human brain cDNA library. FIT fragments were PCR amplified, purified and then cloned into an appropriate vector. Sense oligonucleotides for FIT-NP (5′-[…]-3′: SEQ ID NO:72), and FIT-PR (5′-[…]-3′: SEQ ID NO:73), with Sal1 restriction enzyme sites underlined, were used in conjunction with a common antisense oligonucleotide (5′-[…]-3′: SEQ ID NO:74), with the Not1 restriction enzyme site underlined.
(§2) Human brain cDNA inserts were prepared and cloned into the expression vector according to manufacturer's instructions.

[9] = target: T3, FIT-PR (FIT proline-rich region) (Homo sapiens, UniProt Q9BQI5); test: Yeast two-hybrid screen of human brain cDNA library, bait FIT-PR; format: binding; settings: clones listed highest to lowest interacting strength
T3 construct: expressed in transfected cells
T3 sequence (Q9BQI5 with tags, fused parts or gaps N255T/I269V/G270A/P271T/S276A/V280A/L285P/N289S/A308T/K311T/T318A/S335T/T339A/P340S/N342I/A348T/L352P/P357S/T358A/DEL367-367/L371P/I397L/D402E/F403C/P432S/P434T/T437A/R454S/S455C/T456S): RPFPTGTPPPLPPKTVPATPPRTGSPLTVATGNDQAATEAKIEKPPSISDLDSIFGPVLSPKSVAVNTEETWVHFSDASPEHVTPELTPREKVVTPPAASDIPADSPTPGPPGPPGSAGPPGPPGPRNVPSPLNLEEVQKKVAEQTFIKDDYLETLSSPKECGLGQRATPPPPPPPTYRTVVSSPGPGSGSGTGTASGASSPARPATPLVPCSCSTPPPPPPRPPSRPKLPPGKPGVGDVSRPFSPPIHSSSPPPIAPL
Description: as §1, with “To investigate the mechanism by which FIT regulates energy balance, neural proteins that interact with FIT were identified. In” for “In”
as §2

[10] = not pair fed (jumbled group ad libitum fed)
[11] = pair fed to food intake of FIT antisense-treated rats
[12] = ICV 24 μg/day, day 1, mean ± SEM
[13] = ICV 24 μg/day, day 2, mean ± SEM
[14] = ICV 24 μg/day, day 3, mean ± SEM
[15] = ICV 24 μg/day, day 4, mean ± SEM
[16] = baseline body weight, mean ± SEM
[17] = change compared to day 0, mean ± SEM

T1 sequence (P70596 whole entry, the tested form may be a part): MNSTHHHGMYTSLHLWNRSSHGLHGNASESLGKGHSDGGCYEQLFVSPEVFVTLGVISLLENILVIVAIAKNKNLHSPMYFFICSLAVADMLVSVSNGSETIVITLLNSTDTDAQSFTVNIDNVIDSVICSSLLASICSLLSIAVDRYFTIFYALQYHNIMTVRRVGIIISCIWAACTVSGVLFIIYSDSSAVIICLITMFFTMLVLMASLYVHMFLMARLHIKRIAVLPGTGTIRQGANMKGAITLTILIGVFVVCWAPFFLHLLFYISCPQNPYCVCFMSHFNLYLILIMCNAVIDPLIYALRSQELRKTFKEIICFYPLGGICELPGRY

5′-mc*mg*mc*ma*mc*t*t*a*g*c*t*a*c*mu*mu*mg*mc*mu-3′ [Jumbled, reference compound]
Δ FI ([1]; 24 hr food intake post minus pre injection): −0.02 ± 0.01 g/g BW
24 hr FI post injection ([1]; food intake after MT II or vehicle injection): 0.04 ± 0.01 g/g BW
24 hr FI pre injection ([1]; food intake, during ICV infusion, before MT II or vehicle injection): 0.06 ± 0.01 g/g BW
FIT gene expression [2]: 8.4 ± 0.6 arbitrary units
Day 0 BW [3, 10]: 404 ± 31 g
Day 4 BW [3, 10]: 386 ± 24 g
Food Intake [3, 10]: 81.1 ± 10.3 g
Δ BW [3, 10]: -17.3 ± 8.9 g
Δ TEE ([3]; not pair fed): -21 ± 17 kJ/day/kg
Post TEE ([3]; not pair fed, total energy expenditure after ICV infusion): 492 ± 61 kJ/day/kg
Pre TEE ([3]; not pair fed, total energy expenditure before ICV infusion): 513 ± 62 kJ/day/kg
Day 0 BW [3, 11]: 357 ± 9 g
Day 4 BW [3, 11]: 317 ± 7^a g
Food Intake [3, 11]: 39.1 ± 3.2^a g
Δ BW [3, 11]: -39.7 ± 9.9 g
Post TEE ([3]; pair fed, after ICV infusion): 456 ± 30^c kJ/day/kg
Pre TEE ([3]; pair fed, before ICV infusion): 556 ± 59 kJ/day/kg
Δ TEE ([3]; pair fed): -100 ± 28 kJ/day/kg
Cumulative food intake, Day 1 Food [4, 12]: 8.9 ± 0.5^a g
Cumulative food intake, Day 2 Food [4, 13]: 17.3 ± 1.0^a g
Cumulative food intake, Day 3 Food [4, 14]: 27.3 ± 1.5^a g
Cumulative food intake, Day 4 Food [4, 15]: 38.7 ± 2.7 g
Day 1 BW ([4]; ICV 24 μg/day, mean ± SEM): 188 ± 9 g
Day 2 BW ([4]; ICV 24 μg/day, mean ± SEM): 188 ± 9 g
Day 3 BW ([4]; ICV 24 μg/day, mean ± SEM): 187 ± 9 g
Day 4 BW ([4]; ICV 24 μg/day, mean ± SEM): 187 ± 9 g
Day 0 BW [4, 16]: 191 ± 9 g
Day 1 ΔBW [4, 17]: -3.8 ± 0.7 g
Day 2 ΔBW [4, 17]: -3.3 ± 0.8 g
Day 3 ΔBW [4, 17]: -4.0 ± 1.6 g
Day 4 ΔBW [4, 17]: -3.5 ± 1.7 g
Cumulative food intake, Day 1 Food [5, 12]: 18.7 ± 2.4 g
Cumulative food intake, Day 2 Food [5, 13]: 44.7 ± 4.1 g
Cumulative food intake, Day 3 Food [5, 14]: 72.6 ± 5.1 g
Cumulative food intake, Day 4 Food [5, 15]: 101.5 ± 6.1 g
Day 1 BW ([5]; ICV 24 μg/day, mean ± SEM): 457 ± 24 g
Day 2 BW ([5]; ICV 24 μg/day, mean ± SEM): 468 ± 23 g
Day 3 BW ([5]; ICV 24 μg/day, mean ± SEM): 473 ± 23 g
Day 4 BW ([5]; ICV 24 μg/day, mean ± SEM): 477 ± 22 g
Day 0 BW [5, 16]: 465 ± 24 g
Day 1 ΔBW [5, 17]: -7.8 ± 3.6 g
Day 2 ΔBW [5, 17]: 3.5 ± 3.7 g
Day 3 ΔBW [5, 17]: 6.3 ± 3.5 g
Day 4 ΔBW [5, 17]: 12.0 ± 4.1 g
Δ FI ([6]; 48 hr food intake post minus pre injection): 0.03 ± 0.02 g/g BW
48 hr FI post injection ([6]; food intake relative to body weight, after ICV SHU9119 or vehicle injection): 0.13 ± 0.01 g/g BW
48 hr FI pre injection ([6]; food intake relative to body weight, during ICV infusion, before SHU9119 or vehicle injection): 0.10 ± 0.01 g/g BW
metabolic heat production compared to jumbled-treated ad libitum fed and FIT antisense-treated rats [7]: significantly reduced heat production

B1: Homo sapiens regulatory factor X, 2 (RFX2): FIT interacting protein isolated from a human brain cDNA library (protein)
chain: MQNSEGGADSPASVALRPSAAAPPVPASPQRVLVQAASSNPKGAQMQPISLPRVQQVPQQVQPVQHVYPAQVQYVEGGDAVYTNGAIRTAYTYNPEPQMYAPSSTASYFEAPGGAQVTVAASSPPAVPSHSMVGITMDVGGSPIVSSAGAYLIHGGMDSTRHSLAHTSRSSPATLEMAIENLQKSEGITSHKSGLLNSHLQWLLDNYETAEGVSLPRSSLYNHYLRHCQEHKLDPVNAASFGKLIRSVFMGLRTRRLGTRGNSKYHYYGIRLKPDSPLNRLQEDTQYMAMRQQPMHQKPRYRPAQKTDSLGDSGSHSGLHSTPEQTMAVQSQHHQQYIDVSHVFPEFPAPDLGSFLLQDGVTLHDVKALQLVYRRHCEATVDVVMNLQFHYIEKLWLSFWNSKASSSDGPTSLPASDEDPEGAVLPKDKLISLCQCDPILRWMRSCDHILYQALVEILIPDVLRPVPSTLTQAIRNFAKSLEGWLTNAMSDFPQQVIQTKVGVVSAFAQTLRRYTSLNHLAQAARAVLQNTSQINQMLSDLNRVDFANVQEQASWVCQCEESVVQRLEQDFKLTLQQQSSLDQWASWLDSVVTQVLKQHAGSPSFPKAARQFLLKWSFYSSMVIRDLTLRSAASFGSFHLIRLLYDEYMFYLVEHRVAEATGETPIAVMGEFNDLASLSLTLLDKDDMGDEQRGSEAGPDARSLGEPLVKRERSDPNHSLQGI
modifications: left off: large carriers
Number of clones [8]: 10
Number of clones [9]: 1
